Laboratory results reported in article PMC8308784, “Novel Purine Chemotypes with Activity against Plasmodium falciparum and Trypanosoma cruzi” (Pharmaceuticals, 2021).

Assays:
[1] = tested on: HepG2 cells; assay: HepG2 cell toxicity assay (alamarBlue); assay type: cell-based, human; details: 2 days; minimum value of the 95% CI, except BNZ (mean (SD))
Procedure: Human erythrocytes were purified from B+ Rh+ blood samples and maintained at 4 °C in incomplete RPMI medium. Vero (green monkey kidney epithelial cells), LLC-MK2 (Rhesus monkey kidney epithelial cells), and HepG2 (human liver epithelial cells) cultures were cultivated in DMEM supplemented with 1% penicillin–streptomycin (PS) and 10% heat-inactivated fetal bovine serum (FBS) at 37 °C, 5% CO2, and >95% humidity, as described in [31]. HepG2 cells were also supplemented with 10% non-essential amino acids. Vero and MK2 cells were passaged twice per week at 1:12 ratios, while HepG2 cells were passaged at a 1:8 ratio.
Vero and HepG2 cells were detached, centrifuged, and resuspended in DMEM without phenol red. Cell viability was checked upon cell counting with trypan blue staining. Then, Vero and HepG2 cells were diluted at a concentration of 5 × 10^5 and 3.2 × 10^5 cells per mL, respectively, before adding 100 µL per well to the 96-well plate. Each run contained its own negative (untreated cells) and positive (medium alone) controls. Plates were incubated at 37 °C for 4 days in the case of Vero, or 2 in the case of HepG2 cells. Assay readout was made by adding 50 µL per well of a PBS solution containing 10% alamarBlue reagent (Thermo Fisher Scientific); then, plates were incubated for another 6 h at 37 °C, before recording the fluorescence intensity with a Tecan Infinite M Nano+ reader (excitation: 530 nm, emission: 590 nm).
(§1) Absorbance values derived from the anti-T. cruzi assays and fluorescence values from the anti-P. falciparum and cell toxicity assays were normalized to the controls. In the primary screening at three fixed doses, the compounds’ inhibitory activity was expressed as a percentage of the negative control (100% parasitic growth). In dose–response assays, the compounds’ IC50 and TC50 values were determined with GraphPad Prism 7 software (version 7.00, 2016), using a non-linear regression analysis model defined by the following equation: Y=100 ÷(1+10^((LogIC50−X)×HillSlope))

[2] = tested on: P. falciparum 3D7; assay: P. falciparum dose-response growth inhibition assay (FACS, SYTO 11); assay type: cell-based; details: P. falciparum 3D7, 48 h, mean (SD)
Procedure: Apicomplexan parasite cultures were maintained at 3% hematocrit under an atmosphere of 37 °C in 93% N2, 5% CO2, and 2% O2, following standard methods. Synchronized cultures were obtained via 5% sorbitol lysis.
P. falciparum growth was primarily analyzed under 3 different concentrations ([…]) of the 81 compounds. Conditions were tested in triplicate for every concentration, and the test was repeated when the standard deviation was above 10% for any concentration. Z-values varied between 0.83 and 0.98 in the different plates analyzed. Selected compounds (12.3% potential hit rate) were further analyzed via standard growth inhibition assays, carried out as previously described in [54]. Briefly, parasitemia was adjusted to 1–1.3%, with >90% rings after sorbitol synchronization. Two hundred microliters of parasite culture were plated in 96-well microplates and incubated for 48 h at 37 °C in the presence of decreasing concentrations of the tested compounds, in triplicate. Parasitemia was determined by fluorescence-assisted cell sorting (FACS). Non-infected RBCs and samples containing parasitized RBCs (including controls with DMSO as carrier solvent) were diluted in PBS to a final concentration of ~1–10 × 10^6 cells/mL. The cell suspension was stained with SYTO 11 (0.5 mM stock in DMSO, Thermo Fisher Scientific, Waltham, MA, USA), to a final concentration of 0.5 μM. Samples were analyzed in a Becton Dickinson FACSCalibur. Sample excitation was carried out using a 488-nm, air-cooled argon-ion laser at a power of 15 mW, using forward and side scatter to gate the RBC population, and SYTO 11 green fluorescence (530 nm, FITC filter) was collected in a logarithmic scale. The single-cell population was selected on a forward–side scattergram, and the green fluorescence from this population was analyzed. Parasitemia was expressed as the number of parasitized cells per 100 erythrocytes.
as §1

[3] = tested on: T. cruzi Tulahuen strain expressing β-galactosidase; assay: T. cruzi primary screening at three fixed concentrations; assay type: cell-based
Procedure: T. cruzi parasites from the Tulahuen strain (discrete typing unit (DTU) VI) expressing β-galactosidase were maintained in culture by the infection of LLC-MK2 cells in DMEM supplemented with 2% FBS and 1% penicillin–streptomycin–glutamine (PSG), as described in [52]. When free-swimming trypomastigotes were released to the culture medium, they were centrifuged for 7 min at 2500 rpm and allowed to swim out of the pellet. Trypomastigotes were used to maintain the parasite cycle, or for the performance of the antiparasitic assays.
[…] Conditions were tested in triplicate for every concentration. Z-values varied between 0.81 and 0.92 in the different plates analyzed. Selected compounds (34.6% potential hit rate) were further analyzed via standard growth inhibition assays. The Z-values of dose–response assays correlated with those previously reported. For both assays, Vero cells and trypomastigotes from the Tulahuen T. cruzi strain expressing β-galactosidase were harvested, centrifuged, and resuspended in DMEM without phenol red supplemented with 1% PSG, 2% FBS, 1 mM sodium pyruvate, and 25 mM HEPES. Vero cells and trypomastigotes were counted, diluted at a concentration of 1 × 10^6 cells/mL each, and mixed 1:1 (v/v). Then, 100 μL of that mixture was added per well to the plates already containing the compounds. Each well contained 50,000 host cells and 50,000 parasites, i.e., multiplicity of infection (MOI) = 1. BNZ was used as control of maximal drug growth inhibition in each round, whereas each plate contained its own negative control (maximum parasite growth; Vero cells plus parasites without drugs) and positive control (minimum parasite growth; trypomastigote forms alone marking an enzymatic zero time or baseline galactosidase activity). After four days at 37 °C, 50 µL of a PBS solution containing 0.25% NP40 and 500 µM chlorophenol red-β-D-galactopyranoside (CPRG) substrate were added per well [32]. Plates were incubated at 37 °C for 4 h, and their absorbance read out at 590 nm using an Epoch Gene5 spectrophotometer.
as §1

[4] = compound at 10 µM, average of at least three independent experiments

SMILES | HepG2 Cells TC50 [1] [µM] | IC50 ([2]; Plasmodium falciparum, 3D7, 48 h) [µM] | Primary screening, growth inhibition values at 10 µM [3, 4] | IC50 [2] [µM] | activity at 100 µM ([3]; Trypanosoma cruzi, TULAHUEN, read-out: Primary screening, growth inhibition values at 100 µM) [%] | activity at 1 µM ([3]; Trypanosoma cruzi, TULAHUEN, compound at 1 µM, average of at least three independent experiments, read-out: Primary screening, growth inhibition values at 1 µM) [%] | activity at 10 µM ([3]; Trypanosoma cruzi, TULAHUEN, compound at 10 µM, average of at least three independent experiments, read-out: Primary screening, growth inhibition values at 10 µM) [%]
CC(C)(C)n1c(-c2ccccc2)nc2c(OCc3ccccc3)ncnc21 [Compound 6D] | >200 | 18.9 | 84.14 |  |  |  | 
c1ccc(CCn2c(-c3ccccc3)nc3c(OCc4ccccc4)ncnc32)cc1 [Compound 6g] | >300 |  | 87.76 | 19.1 |  |  | 
COC(=O)c1ccccc1-n1cc(COc2ncnc3c2nc(-c2ccccc2)n3N(C)C)nn1 [Compound 34] |  |  |  |  | 13.9 | 68 | 66.9
